Laboratory results published in ChEMBL document CHEMBL1136082, “Muscarinic M(3) receptor antagonists with (2R)-2-[(1R)-3,3-difluorocyclopentyl]-2-hydroxyphenylacetamide Structures. Part 2” (Bioorg Med Chem Lett, 2003).

Key:
[1] = target: T1, Muscarinic acetylcholine receptor M1 (Homo sapiens, UniProt P11229); assay: Binding affinity against human Muscarinic acetylcholine receptor M1 in transfected CHO cells; assay type: cell-based
T1 sequence (P11229 whole entry): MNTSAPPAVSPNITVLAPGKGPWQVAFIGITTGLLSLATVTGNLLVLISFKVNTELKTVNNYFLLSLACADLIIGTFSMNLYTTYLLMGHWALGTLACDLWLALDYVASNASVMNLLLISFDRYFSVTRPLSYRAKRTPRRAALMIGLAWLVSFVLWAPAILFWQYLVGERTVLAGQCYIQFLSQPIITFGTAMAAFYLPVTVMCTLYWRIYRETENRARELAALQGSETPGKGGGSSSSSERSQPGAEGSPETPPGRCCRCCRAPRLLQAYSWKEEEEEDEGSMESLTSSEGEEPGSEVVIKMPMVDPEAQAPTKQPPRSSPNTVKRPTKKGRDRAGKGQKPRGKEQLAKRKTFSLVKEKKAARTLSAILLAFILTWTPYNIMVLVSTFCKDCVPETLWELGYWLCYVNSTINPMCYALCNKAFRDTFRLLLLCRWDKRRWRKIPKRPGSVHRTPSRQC

[2] = target: Muscarinic acetylcholine receptor M3 (Homo sapiens, UniProt P20309); assay: Binding affinity against human muscarinic acetylcholine receptor M3 in transfected CHO cells; assay type: cell-based
[3] = target: T2, Muscarinic acetylcholine receptor M2 (Homo sapiens, UniProt P08172); assay: Binding affinity against human muscarinic acetylcholine receptor M2 in transfected CHO cells; assay type: cell-based
T2 sequence (P08172 whole entry): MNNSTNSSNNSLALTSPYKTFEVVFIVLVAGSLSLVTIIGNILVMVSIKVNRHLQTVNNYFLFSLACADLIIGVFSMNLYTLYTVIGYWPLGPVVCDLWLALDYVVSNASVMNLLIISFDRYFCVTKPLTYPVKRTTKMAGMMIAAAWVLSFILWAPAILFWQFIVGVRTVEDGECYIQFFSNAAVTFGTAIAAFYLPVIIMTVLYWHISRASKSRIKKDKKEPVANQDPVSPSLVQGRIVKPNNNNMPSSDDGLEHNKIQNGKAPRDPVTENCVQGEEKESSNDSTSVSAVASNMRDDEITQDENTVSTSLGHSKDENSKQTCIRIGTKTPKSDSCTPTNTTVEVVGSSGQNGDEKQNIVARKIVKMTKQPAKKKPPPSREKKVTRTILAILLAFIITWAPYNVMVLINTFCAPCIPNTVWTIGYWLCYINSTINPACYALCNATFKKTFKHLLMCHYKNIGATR

[4] = Area under curve was determined after 0.1 mg/kg iv administration in dog; assay type: ADME, organism-based, Canis lupus familiaris; design: dose 0.1 mg/kg, route intravenous; conditions: in vivo
[5] = Area under curve was determined after 0.3 mg/kg po administration in dog; assay type: ADME, organism-based, Canis lupus familiaris; design: dose 0.3 mg/kg, route oral; conditions: in vivo
[6] = In vitro metabolic stability determined after 30 min of incubation in dog hepatic microsomes; assay type: ADME, Canis lupus familiaris; conditions: liver microsomes, read-out: Metabolic stability
[7] = In vitro metabolic stability determined after 30 min of incubation in human hepatic microsomes; assay type: ADME; conditions: liver microsomes, read-out: Metabolic stability
[8] = Half-life of the compound after 0.3 mg/kg po administration in dog; assay type: ADME, organism-based, Canis lupus familiaris; design: dose 0.3 mg/kg, route oral; conditions: in vivo
[9] = In vitro metabolic stability determined after 30 min of incubation in rat hepatic microsomes; assay type: ADME; conditions: liver microsomes, read-out: Metabolic stability
[10] = Cmax after 0.3 mg/kg po administration in dog; assay type: ADME, organism-based, Canis lupus familiaris; design: dose 0.3 mg/kg, route oral; conditions: in vivo
[11] = Vdss was determined after iv 0.1 mg/kg administration in dog; assay type: ADME, organism-based, Canis lupus familiaris; design: dose 0.1 mg/kg, route intravenous; conditions: in vivo, read-out: Vdss
[12] = Total clearance was determined after 0.1 mg/kg iv administration in dog; assay type: ADME, organism-based, Canis lupus familiaris; design: dose 0.1 mg/kg, route intravenous; conditions: in vivo, read-out: CLtotal
[13] = Oral bioavailability after 0.3 mg/kg po administration in dog; assay type: ADME, organism-based, Canis lupus familiaris; conditions: in vivo

Chain of Muscarinic acetylcholine receptor M3 (P20309 whole entry): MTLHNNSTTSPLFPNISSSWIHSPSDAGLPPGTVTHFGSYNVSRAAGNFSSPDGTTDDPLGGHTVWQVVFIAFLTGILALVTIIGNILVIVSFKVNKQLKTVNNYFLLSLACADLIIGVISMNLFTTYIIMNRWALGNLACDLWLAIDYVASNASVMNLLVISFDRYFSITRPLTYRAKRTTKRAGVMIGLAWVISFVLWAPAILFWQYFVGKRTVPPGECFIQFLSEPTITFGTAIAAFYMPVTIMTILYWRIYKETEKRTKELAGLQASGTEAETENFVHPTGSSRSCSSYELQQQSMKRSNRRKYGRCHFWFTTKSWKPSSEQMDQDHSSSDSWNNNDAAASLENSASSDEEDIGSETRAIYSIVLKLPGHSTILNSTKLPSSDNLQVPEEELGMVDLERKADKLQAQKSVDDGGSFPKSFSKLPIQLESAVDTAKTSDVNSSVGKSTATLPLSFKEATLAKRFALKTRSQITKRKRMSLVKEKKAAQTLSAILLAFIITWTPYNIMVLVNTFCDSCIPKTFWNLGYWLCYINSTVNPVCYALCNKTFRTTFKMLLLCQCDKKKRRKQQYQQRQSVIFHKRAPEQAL

Compound | Ki [1] | Ki [2] | Ki [3] | further results
NCCCCC1CCN(C(=O)[C@](O)(c2ccccc2)[C@@H]2CCC(F)(F)C2)CC1 | 140 nM | 76 nM | 4200 nM | –
NCc1cccc(NC(=O)[C@](O)(c2ccccc2)[C@@H]2CCC(F)(F)C2)c1 | 210 nM | 93 nM | 2900 nM | –
NCc1ccc(NC(=O)[C@](O)(c2ccccc2)[C@@H]2CCC(F)(F)C2)cc1 | 740 nM | 650 nM | 5300 nM | –
CC1(CCN)CCN(C(=O)[C@](O)(c2ccccc2)[C@@H]2CCC(F)(F)C2)CC1 | 1.5 nM | 3.3 nM | 210 nM | –
NCC1CCN(C(=O)[C@](O)(c2ccccc2)[C@@H]2CCC(F)(F)C2)C1 (stereo not given in full) | 2.1 nM | 2.9 nM | 130 nM | –
O=C(NCC1CCNCC1)[C@](O)(c1ccccc1)[C@@H]1CCC(F)(F)C1 | 23 nM | 17 nM | 2200 nM | –
O=C(Nc1ccc2c(c1)CNC2)[C@](O)(c1ccccc1)[C@@H]1CCC(F)(F)C1 | 630 nM | 290 nM | 15000 nM | –
NCCC1CCN(C(=O)[C@](O)(c2ccccc2)[C@@H]2CCC(F)(F)C2)CC1 | 6.6 nM | – | – | AUC [4]: 150 ng·h/mL; AUC [5]: 440 ng·h/mL; remaining at 0.5 h [6]: 100%; remaining at 0.5 h [7]: 82%; half-life [8]: 6.9 h; remaining at 0.5 h [9]: 100%; Cmax [10]: 43 ng/mL; Vd [11]: 9.4 L/kg; clearance [12]: 13 mL/min/kg; bioavailability [13]: 98%
O=C(N1CCCNCC1)[C@](O)(c1ccccc1)[C@@H]1CCC(F)(F)C1 | 14 nM | 17 nM | 1100 nM | –
CCC1(CCN)CCN(C(=O)[C@](O)(c2ccccc2)[C@@H]2CCC(F)(F)C2)CC1 | 1 nM | 7 nM | 300 nM | –
NCC1CCN(C(=O)[C@](O)(c2ccccc2)[C@@H]2CCC(F)(F)C2)CC1 | 11 nM | 11 nM | 760 nM | remaining at 0.5 h [6]: 100%; remaining at 0.5 h [7]: 100%; remaining at 0.5 h [9]: 98%
NCC1CCN(C(=O)[C@](O)(c2ccccc2)C2CCCC2)CC1 | 1.8 nM | 1.7 nM | 28 nM | remaining at 0.5 h [6]: 100%; remaining at 0.5 h [7]: 91%; remaining at 0.5 h [9]: 72%
NCCCC1CCN(C(=O)[C@](O)(c2ccccc2)[C@@H]2CCC(F)(F)C2)CC1 | 92 nM | 47 nM | 2800 nM | –
O=C(N1CCNCC1)[C@](O)(c1ccccc1)[C@@H]1CCC(F)(F)C1 | 30 nM | 50 nM | 1200 nM | –
O=C(NCCC1CCNCC1)[C@](O)(c1ccccc1)[C@@H]1CCC(F)(F)C1 | 140 nM | 89 nM | 3900 nM | –
NCC=C1CCN(C(=O)[C@](O)(c2ccccc2)[C@@H]2CCC(F)(F)C2)CC1 | 1.3 nM | 1.2 nM | 55 nM | –
NC1CCN(C(=O)[C@](O)(c2ccccc2)[C@@H]2CCC(F)(F)C2)CC1 | 3 nM | 5.1 nM | 240 nM | remaining at 0.5 h [6]: 88%; remaining at 0.5 h [7]: 86%; remaining at 0.5 h [9]: 100%
CC1(N)CCN(C(=O)[C@](O)(c2ccccc2)[C@@H]2CCC(F)(F)C2)CC1 | 4.7 nM | 8.3 nM | 640 nM | –
O=C(NC1CCNCC1)[C@](O)(c1ccccc1)[C@@H]1CCC(F)(F)C1 | 310 nM | 320 nM | 15000 nM | –
NCC(=O)N1CCN(C(=O)[C@](O)(c2ccccc2)[C@@H]2CCC(F)(F)C2)CC1 | 21 nM | 16 nM | 300 nM | –
NCCN1CCN(C(=O)[C@](O)(c2ccccc2)[C@@H]2CCC(F)(F)C2)CC1 | 11 nM | 9.6 nM | 820 nM | –
NCCC1CCN(C(=O)[C@](O)(c2ccccc2)C2CCCC2)CC1 | 2.1 nM | 1.1 nM | 41 nM | remaining at 0.5 h [6]: 84%; remaining at 0.5 h [7]: 86%; remaining at 0.5 h [9]: 77%
Nc1cccc(CN2CCC(NC(=O)[C@](O)(c3ccccc3)[C@@H]3CCC(F)(F)C3)CC2)n1 | – | – | – | remaining at 0.5 h [6]: 84%; remaining at 0.5 h [7]: 80%; remaining at 0.5 h [9]: 46%
CN(C)CCC1CCN(C(=O)[C@](O)(c2ccccc2)[C@@H]2CCC(F)(F)C2)CC1 | 760 nM | 930 nM | 15000 nM | –
O=C(N1CCC(CCN2CCCCC2)CC1)[C@](O)(c1ccccc1)[C@@H]1CCC(F)(F)C1 | 1900 nM | 2400 nM | 36000 nM | –
NC1CCN(C(=O)[C@](O)(c2ccccc2)C2CCCC2)CC1 | 0.98 nM | 1.4 nM | 11 nM | remaining at 0.5 h [6]: 89%; remaining at 0.5 h [7]: 92%; remaining at 0.5 h [9]: 40%
CC(C)(N)CC1CCN(C(=O)[C@](O)(c2ccccc2)[C@@H]2CCC(F)(F)C2)CC1 | 37 nM | 26 nM | 1000 nM | –
NCC1CCC(NC(=O)[C@](O)(c2ccccc2)[C@@H]2CCC(F)(F)C2)CC1 (stereo not given in full) | 55 nM | 100 nM | 6800 nM | –
CNCCC1CCN(C(=O)[C@](O)(c2ccccc2)[C@@H]2CCC(F)(F)C2)CC1 | 140 nM | 120 nM | 5400 nM | –
